Values of other authors, collected in patent publication US7056538B2, “Disinfectant solution based on sodium hypochlorite, and process for preparing it” (Aziende Chimiche Riunite Angelini Francesco A.C.R.A.F. …, priority 2001, dated 2006).

Details: 25° C.

- dissociation constant pKa: 7.49
SMILES: OCl [hypochlorous acid]
